Eleven compounds from patent EP0453119A1, “Modified beta adrenergic receptor” (MERCK & CO. INC., priority 1990, dated 1991) can be followed below.

T3 sequence (P04274 whole entry D113S): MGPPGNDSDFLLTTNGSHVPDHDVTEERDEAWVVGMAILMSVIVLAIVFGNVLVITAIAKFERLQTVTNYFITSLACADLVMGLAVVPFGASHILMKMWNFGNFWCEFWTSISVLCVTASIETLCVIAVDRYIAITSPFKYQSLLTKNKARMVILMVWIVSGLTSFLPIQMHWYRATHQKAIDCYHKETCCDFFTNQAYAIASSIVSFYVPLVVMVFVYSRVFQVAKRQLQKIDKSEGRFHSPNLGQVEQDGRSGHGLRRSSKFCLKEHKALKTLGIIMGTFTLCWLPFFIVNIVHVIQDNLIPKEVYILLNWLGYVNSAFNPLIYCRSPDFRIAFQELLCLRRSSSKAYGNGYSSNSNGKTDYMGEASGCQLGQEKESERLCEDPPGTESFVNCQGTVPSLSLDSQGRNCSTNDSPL

The target of the first series is T1, Wild-type βAR (Mesocricetus auratus, UniProt P04274).
T1 construct: pSVHAC contains the full length hamster ß₂AR cDNA cloned into the EcoRI site of pSVL; expressed in transfected cells; host or cells: mouse L cells (clonal lines, membranes)
T1 sequence (P04274 whole entry): as the sequence (P04274 whole entry D113S) above, with S113D counted along it
Nature of the series: Adenylyl cyclase stimulation in membranes of mouse L cells expressing the wild-type receptor. The format is biochemical, hamster.
Details: not given
How it is done: (§1) Expression in mammalian cells. For the establishment of clonal cell lines expressing mutant receptors, the plasmid DNAs were transfected into mouse L cells by the CaPO₄ procedure. […] The precipitate was added to the media covering subconfluent monolayers of mouse L cells in 100 mm petri dishes and incubated at 37°C for 4 hrs. The media was removed and the cells were washed once with Dulbecco's modified minimal essential medium (DMEM). […] DMEM containing 10% fetal bovine serum was then added to the monolayers and the cells were incubated at 37°C for 12-18 hrs. The medium was changed to DMEM containing 10% fetal bovine serum and […] genticin to select for cells containing the expression vector. […] Individual colonies were isolated and expanded into cell lines.
(§2) Membranes were prepared from L cell monolayers by hypotonic lysis in 10 mM Tris, pH 7.5 for 10 min at 4°C.
(§3) The reaction was allowed to proceed for 30 min at 30°C before it was quenched at 4°C with an excess of unlabeled ATP. The ³²P-cAMP produced was determined by Dowex and alumina chromatography, as described by Salomon et al., supra.
Data Analysis. […] The Michaelis-Menton equation was used: V=Vmax[A]/Kact+[A], where V is the level of cyclase stimulation (in pmol ³²P-cAMP/mg protein/min) measured at a given agonist concentration [A], and Vmax is the calculated maximal stimulation at infinite agonist concentration.
A word on the EC50: it is the midpoint of the concentration-response curve. Consider `CNC[C@H](O)c1ccc(O)c(O)c1` [Compound 2, epinephrine], for which the 50% effective concentration (EC50) was 300 nM.

The target in the next series is T2, [Ser^113]βAR (Mesocricetus auratus, UniProt P04274, D113S).
T2 construct: pSVHAC contains the full length hamster ß₂AR cDNA cloned into the EcoRI site of pSVL; expressed in transfected cells; host or cells: mouse L cells (clonal lines, membranes)
T2 sequence (P04274 whole entry D113S): as the sequence (P04274 whole entry D113S) above
The experiment in a line: Adenylyl cyclase stimulation in membranes of mouse L cells expressing the mutant receptor. As to conditions: result in words, acids compared with the corresponding esters. The format is biochemical, hamster. The protocol: Mutagenesis of the ßAR gene. […] Other standard cloning techniques were performed as described by the former Manual and would be easily reproduced by anyone trained in molecular biology. An oligonucleotide 19 nucleotides in length complementary to the phage DNA surrounding the codon for Asp¹¹³ were synthesized using an Applied Biosystems Model 3A DNA synthesizer. The oligonucleotide contained mismatched positions in order to convert the codon for Asp¹¹³ (GAT) to Ser ([…]). The oligonucleotide was annealed to the phage DNA for priming and extended using Klenow DNA polymerase and T4 DNA ligase. […] The ßAR gene in this vector utilizes the SV40 early promoter, the modified splice signal, and the ßAR polyadenylation site for expression. The ligated mixture was transformed into E. coli strain DH5 (Bethesda Research Laboratories) and ampicillin resistant colonies were screened by filter hybridization using the oligonucleotide corresponding to the mutation as the hybridization probe. Plasmids were isolated from several hybridization positive colonies and mapped to insure the proper DNA insert was contained in the clone. The mutations were resolved by retransformation of the plasmid DNA into E. coli. Mutant plasmid containing colonies were again isolated by filter hybridization as above. Plasmid DNA was isolated from overnight cultures of cells by alkaline lysis and twice banding in CsCl-ethidium bromide equilibrium density gradients. […] The purity of the plasmid preparation was tested by retransformation of the DNA into E. coli followed by colony hybridization. […] Plasmid DNA was isolated as above and confirmed by restriction mapping.
as §1, §2, §3
Data Analysis. Activation constant (Kact) values for adenylyl cyclase stimulation were obtained by computer assisted nonlinear regression analysis of curves generated in the presence of increasing concentrations of compounds. The Michaelis-Menton equation was used: V=Vmax[A]/Kact+[A], where V is the level of cyclase stimulation (in pmol ³²P-cAMP/mg protein/min) measured at a given agonist concentration [A], and Vmax is the calculated maximal stimulation at infinite agonist concentration.
As for `O=C(O)/C=C/c1ccc(O)c(O)c1` [Compound 8], the “activation of [Ser¹¹³]ßAR” value is “less effective”.
Take `CCOC(=O)CC(O)c1ccc(O)c(O)c1` (centres unmarked) [Compound 13]: the “activation of [Ser¹¹³]ßAR” value is listed as “activated”.
As to `CCOC(=O)Cc1ccc(O)c(O)c1` [Compound 11], the “activation of [Ser¹¹³]ßAR” value is “activated”.
On the same count and under the same terms, with `COC(=O)/C=C/c1ccc(O)c(O)c1` [Compound 7] the entry was “activated”; with `CCOC(=O)C(=O)Cc1ccc(O)c(O)c1` [Compound 9], “activated”.
For `CCOC(=O)CCc1ccc(O)c(O)c1` [Compound 5], the “activation of [Ser¹¹³]ßAR” value is “activated”.
With `CCOC(=O)C(O)c1ccc(O)c(O)c1` (centres unmarked) [Compound 12], the “activation of [Ser¹¹³]ßAR” value is listed as “weakly”.
Take `O=C(O)C(=O)Cc1ccc(O)c(O)c1` [Compound 10]: the “activation of [Ser¹¹³]ßAR” value is given as “less effective”.
Consider `O=C(O)CCc1ccc(O)c(O)c1` [Compound 6], for which the “activation of [Ser¹¹³]ßAR” value is listed as “less effective”.

Another series has as its target T3, [Ser¹¹³]ßAR (Mesocricetus auratus, UniProt P04274, D113S).
T3 construct: pSVHAC contains the full length hamster ß₂AR cDNA cloned into the EcoRI site of pSVL; expressed in transfected cells; host or cells: COS-7 cells (membranes)
Test: not given
Also noted: species or system hamster. The note with it: COS-7 cell membranes; equilibrium binding. The protocol: Membrane Preparation. COS-7 cell monolayers were washed 3 times in PBS, scraped from the flask with a rubber policeman, and centrifuged at 2000 x g for 5 min. The cell pellet was resuspended in 75 mM Tris, pH 7.4, 12.5 mM MgCl₂, […] EDTA (TME buffer) at a concentration of 10⁸ cells/ml, then diluted 1:5 with water and lysed by freezing in liquid N₂ and thawing with vigorous vortexing. Nuclei were removed by centrifugation over a cushion of 60% sucrose at 2500 x g for 15 min. The upper layer was collected, membranes pelleted by centrifugation at 40,000 x g for 15 min,and resuspended in TME at a protein concentration of 1-2 mg/ml.
Receptor Assays. ¹²⁵I-CYP binding to membranes was measured in a final volume of 250 ul of TME buffer, containing […] of membrane protein and 225 pM ¹²⁵I-CYP for 90 min at 23°C, as previously described Dixon et al. (1987), supra. Membranes were collected by filtration on GF/C glass fiber filters and bound ¹²⁵I-CYP was detected with a gamma counter. Nonspecific binding, measured in the presence of […] alprenolol, was subtracted from the total binding.
As to `CC(C)(C)NCC(O)COc1cccc2[nH]c(C#N)c([125I])c12` (centres unmarked) [¹²⁵I-CYP, ¹²⁵I-cyanopindolol], the ¹²⁵I-CYP binding result is recorded as “did not bind detectable levels”.
